Assay [1] in a line: Binding affinity to HPPK (unknown origin) assessed as dissociation constant by MST analysis. Also noted: species or system Bacteria.
Assay [2] concerns Staphylococcus epidermidis. Put plainly: Antibacterial activity against Staphylococcus epidermidis assessed as inhibition of bacterial growth in LB media. It is filed as functional.
For another assay, the system named is Escherichia coli. Briefly: Antibacterial activity against Escherichia coli MG1655 assessed as inhibition of bacterial growth in LB media. It is filed as functional.

1 molecule from ChEMBL document CHEMBL6083229, “Bisubstrate inhibitors of 6-hydroxymethyl-7,8-dihydroptein pyrophosphokinase: Toward cell permeability” (Bioorg Med Chem Lett, 2024) can be followed below.

In brackets after ≈: the same amount, converted by molar mass.

Take `Nc1nc2[nH]cc(CCCN3CCC(SC[C@H]4O[C@@H](n5cnc6c(N)ncnc65)[C@H](O)[C@@H]4O)CC3C(=O)O)c2c(=O)[nH]1` (stereo partly specified): the Kd in assay [1] was found to be 12.8 µM. Moreover, in assay [2], the MIC50 amounted to 120 µM (≈ 72.1 µg/mL) and the MIC90 was found to be 240 µM (≈ 144 µg/mL). For the same molecule, in assay [2] (read-out: MIC100), the MIC is 400 µM (≈ 240 µg/mL). In the assay with Escherichia coli, the MIC10 was 400 µM (≈ 240 µg/mL) and the MIC30 was 2000 µM (≈ 1200 µg/mL).
